Experimental data: PubChem BioAssay AID248 (DTP/NCI, 2004)
Several values for one entry are separate records, joined by “and”; a condition that tells them apart may be missing. Equal entries are not always repeated. Inconclusive results and toxic doses are left out. Rule as the data show it: active = T/C of 150% or more; inactive = T/C below 125%.

System: L1210 leukemia ip in BDF1 mice, survival T/C
Assay: NCI In Vivo Anticancer Drug Screen. Data for tumor model L1210 Leukemia (intraperitoneal) in B6D2F1 (BDF1) mice
Conditions: higher = longer survival
Method in brief: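 Survival endpoint. Drug-treated group vs vehicle group, expressed as T divided by C. Tumor passaged by transplantation.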

[1] = endpoint: mean survival time, dose: 100.0 mg/kg/injection, schedule: Q01DX009 (ip), vehicle: Klucel (hydroxypropylcellulose) (HPC)
[2] = endpoint: mean survival time, dose: 200.0 mg/kg/injection, schedule: Q01DX009 (ip), vehicle: Klucel (hydroxypropylcellulose) (HPC)
[3] = endpoint: mean survival time, dose: 400.0 mg/kg/injection, schedule: Q01DX009 (ip), vehicle: Klucel (hydroxypropylcellulose) (HPC)
[4] = endpoint: mean survival time, dose: 100.0 mg/kg/injection, schedule: Q01DX001 (ip), vehicle: saline
[5] = endpoint: mean survival time, dose: 200.0 mg/kg/injection, schedule: Q01DX001 (ip), vehicle: saline
[6] = endpoint: mean survival time, dose: 400.0 mg/kg/injection, schedule: Q01DX001 (ip), vehicle: saline

Measured: T/C

CC(=O)O[C@]1(C(C)=O)CC[C@H]2[C@@H]3C[C@H](C)C4=CC(=O)CC[C@]4(C)[C@H]3CC[C@@]21C
inactive: endpoint: mean survival time, dose: 50.0 mg/kg/injection, schedule: Q01DX009 (ip), vehicle: Klucel (hydroxypropylcellulose) (HPC) 109 % of control | endpoint: mean survival time, dose: 100.0 mg/kg/injection, schedule: Q01DX001 (sc), vehicle: steriod suspending solution 102 % of control | [1] 101 % of control | endpoint: mean survival time, dose: 200.0 mg/kg/injection, schedule: Q01DX001 (sc), vehicle: steriod suspending solution 108 % of control | [2] 103 % of control | endpoint: mean survival time, dose: 200.0 mg/kg/injection, schedule: Q01DX009 (sc), vehicle: steriod suspending solution 91 % of control | endpoint: mean survival time, dose: 400.0 mg/kg/injection, schedule: Q01DX001 (sc), vehicle: steriod suspending solution 102 % of control | [3] 100 % of control | endpoint: mean survival time, dose: 400.0 mg/kg/injection, schedule: Q01DX009 (sc), vehicle: steriod suspending solution 94 % of control | endpoint: mean survival time, dose: 600.0 mg/kg/injection, schedule: Q01DX009 (sc), vehicle: steriod suspending solution 96 % of control | endpoint: mean survival time, dose: 800.0 mg/kg/injection, schedule: Q01DX009 (ip), vehicle: Klucel (hydroxypropylcellulose) (HPC) 104 % of control | endpoint: mean survival time, dose: 800.0 mg/kg/injection, schedule: Q01DX009 (sc), vehicle: steriod suspending solution 91 % of control | endpoint: mean survival time, dose: 1000.0 mg/kg/injection, schedule: Q01DX009 (sc), vehicle: steriod suspending solution 94 % of control | endpoint: median survival time, dose: 16.0 mg/kg/injection, schedule: Q03HX008 (ip), vehicle: Klucel (hydroxypropylcellulose) (HPC) 97 % of control | endpoint: median survival time, dose: 16.0 mg/kg/injection, schedule: Q03HX016 (ip), vehicle: Klucel (hydroxypropylcellulose) (HPC) 94 % of control | endpoint: median survival time, dose: 16.0 mg/kg/injection, schedule: Q03HX024 (ip), vehicle: Klucel (hydroxypropylcellulose) (HPC) 96 % of control | endpoint: median survival time, dose: 32.0 mg/kg/injection, schedule: Q03HX008 (ip), vehicle: Klucel (hydroxypropylcellulose) (HPC) 96 % of control | endpoint: median survival time, dose: 32.0 mg/kg/injection, schedule: Q03HX016 (ip), vehicle: Klucel (hydroxypropylcellulose) (HPC) 94 % of control | endpoint: median survival time, dose: 32.0 mg/kg/injection, schedule: Q03HX024 (ip), vehicle: Klucel (hydroxypropylcellulose) (HPC) 95 % of control | endpoint: median survival time, dose: 64.0 mg/kg/injection, schedule: Q01DX009 (ip), vehicle: Klucel (hydroxypropylcellulose) (HPC) 107 % of control | endpoint: median survival time, dose: 64.0 mg/kg/injection, schedule: Q03HX008 (ip), vehicle: Klucel (hydroxypropylcellulose) (HPC) 93 % of control | endpoint: median survival time, dose: 64.0 mg/kg/injection, schedule: Q03HX016 (ip), vehicle: Klucel (hydroxypropylcellulose) (HPC) 94 % of control | endpoint: median survival time, dose: 64.0 mg/kg/injection, schedule: Q03HX024 (ip), vehicle: Klucel (hydroxypropylcellulose) (HPC) 93 % of control | endpoint: median survival time, dose: 128.0 mg/kg/injection, schedule: Q01DX001 (ip), vehicle: Klucel (hydroxypropylcellulose) (HPC) 100 % of control | endpoint: median survival time, dose: 128.0 mg/kg/injection, schedule: Q01DX009 (ip), vehicle: Klucel (hydroxypropylcellulose) (HPC) 105 % of control | endpoint: median survival time, dose: 128.0 mg/kg/injection, schedule: Q03HX008 (ip), vehicle: Klucel (hydroxypropylcellulose) (HPC) 93 % of control | endpoint: median survival time, dose: 128.0 mg/kg/injection, schedule: Q03HX016 (ip), vehicle: Klucel (hydroxypropylcellulose) (HPC) 93 % of control | endpoint: median survival time, dose: 128.0 mg/kg/injection, schedule: Q04DX003 (ip), vehicle: Klucel (hydroxypropylcellulose) (HPC) 102 % of control | endpoint: median survival time, dose: 128.0 mg/kg/injection, schedule: Q08DX002 (ip), vehicle: Klucel (hydroxypropylcellulose) (HPC) 100 % of control | endpoint: median survival time, dose: 256.0 mg/kg/injection, schedule: Q01DX001 (ip), vehicle: Klucel (hydroxypropylcellulose) (HPC) 96 % of control | endpoint: median survival time, dose: 256.0 mg/kg/injection, schedule: Q01DX009 (ip), vehicle: Klucel (hydroxypropylcellulose) (HPC) 104 % of control | endpoint: median survival time, dose: 256.0 mg/kg/injection, schedule: Q04DX003 (ip), vehicle: Klucel (hydroxypropylcellulose) (HPC) 105 % of control | endpoint: median survival time, dose: 256.0 mg/kg/injection, schedule: Q08DX002 (ip), vehicle: Klucel (hydroxypropylcellulose) (HPC) 108 % of control | endpoint: median survival time, dose: 512.0 mg/kg/injection, schedule: Q01DX001 (ip), vehicle: Klucel (hydroxypropylcellulose) (HPC) 100 % of control | endpoint: median survival time, dose: 512.0 mg/kg/injection, schedule: Q01DX009 (ip), vehicle: Klucel (hydroxypropylcellulose) (HPC) 100 % of control | endpoint: median survival time, dose: 512.0 mg/kg/injection, schedule: Q04DX003 (ip), vehicle: Klucel (hydroxypropylcellulose) (HPC) 98 % of control | endpoint: median survival time, dose: 512.0 mg/kg/injection, schedule: Q08DX002 (ip), vehicle: Klucel (hydroxypropylcellulose) (HPC) 100 % of control | endpoint: median survival time, dose: 1024.0 mg/kg/injection, schedule: Q01DX001 (ip), vehicle: Klucel (hydroxypropylcellulose) (HPC) 102 % of control | endpoint: median survival time, dose: 1024.0 mg/kg/injection, schedule: Q01DX009 (ip), vehicle: Klucel (hydroxypropylcellulose) (HPC) 105 % of control | endpoint: median survival time, dose: 1024.0 mg/kg/injection, schedule: Q04DX003 (ip), vehicle: Klucel (hydroxypropylcellulose) (HPC) 114 % of control | endpoint: median survival time, dose: 1024.0 mg/kg/injection, schedule: Q08DX002 (ip), vehicle: Klucel (hydroxypropylcellulose) (HPC) 97 % of control | endpoint: median survival time, dose: 2048.0 mg/kg/injection, schedule: Q01DX001 (ip), vehicle: Klucel (hydroxypropylcellulose) (HPC) 92 % of control | endpoint: median survival time, dose: 2048.0 mg/kg/injection, schedule: Q08DX002 (ip), vehicle: Klucel (hydroxypropylcellulose) (HPC) 95 % of control

CN(C)C(=O)Nc1nc2ccccc2s1
inactive: endpoint: mean survival time, dose: 100.0 mg/kg/injection, schedule: Q04DX002 (ip), vehicle: other 88 % of control and 92 % of control | endpoint: mean survival time, dose: 100.0 mg/kg/injection, schedule: Q04DX003 (ip), vehicle: other 96 % of control and 120 % of control | endpoint: mean survival time, dose: 200.0 mg/kg/injection, schedule: Q04DX002 (ip), vehicle: other 97 % of control and 100 % of control | endpoint: mean survival time, dose: 200.0 mg/kg/injection, schedule: Q04DX003 (ip), vehicle: other 99 % of control and 105 % of control | endpoint: mean survival time, dose: 400.0 mg/kg/injection, schedule: Q04DX002 (ip), vehicle: other 95 % of control and 103 % of control

OCCOCc1ccccc1
inactive: endpoint: mean survival time, dose: 100.0 mg/kg/injection, schedule: Q04DX003 (ip), vehicle: saline 104 % of control | endpoint: mean survival time, dose: 200.0 mg/kg/injection, schedule: Q04DX003 (ip), vehicle: saline 98 % of control | endpoint: mean survival time, dose: 400.0 mg/kg/injection, schedule: Q04DX003 (ip), vehicle: saline 100 % of control

CC(C)CCC(=O)CCC1CCCCC1
inactive: [4] 92 % of control | [5] 92 % of control | [6] 94 % of control

C[N+](C)(C)CC(O)CCl (stereo unspecified)
inactive: [4] 95 % of control | [5] 102 % of control

Cc1ccc(C2(C)CC/C(=N\NC(=O)c3ccccc3)c3cc(C)c(C)cc32)cc1C (stereo unspecified)
inactive: [4] 97 % of control | [5] 98 % of control | [6] 104 % of control

Cc1ccccc1N(C)C(=S)c1ccc(Cl)cc1
inactive: endpoint: mean survival time, dose: 100.0 mg/kg/injection, schedule: Q01DX001 (ip), vehicle: Klucel (hydroxypropylcellulose) (HPC) 105 % of control | endpoint: mean survival time, dose: 100.0 mg/kg/injection, schedule: Q04DX003 (ip), vehicle: Klucel (hydroxypropylcellulose) (HPC) 92 % of control | endpoint: mean survival time, dose: 200.0 mg/kg/injection, schedule: Q01DX001 (ip), vehicle: Klucel (hydroxypropylcellulose) (HPC) 102 % of control | endpoint: mean survival time, dose: 200.0 mg/kg/injection, schedule: Q04DX003 (ip), vehicle: Klucel (hydroxypropylcellulose) (HPC) 94 % of control | endpoint: mean survival time, dose: 400.0 mg/kg/injection, schedule: Q01DX001 (ip), vehicle: Klucel (hydroxypropylcellulose) (HPC) 110 % of control | endpoint: mean survival time, dose: 400.0 mg/kg/injection, schedule: Q04DX003 (ip), vehicle: Klucel (hydroxypropylcellulose) (HPC) 96 % of control

C/C=C1\SC(=S)NC1=O
inactive: endpoint: mean survival time, dose: 20.0 mg/kg/injection, schedule: Q01DX001 (ip), vehicle: other 100 % of control | endpoint: mean survival time, dose: 40.0 mg/kg/injection, schedule: Q01DX001 (ip), vehicle: other 100 % of control | endpoint: mean survival time, dose: 80.0 mg/kg/injection, schedule: Q01DX001 (ip), vehicle: other 101 % of control

COC(=O)c1ccccc1NC(=O)Nc1cc(OC)ccc1OC
inactive: [1] 98 % of control | [2] 102 % of control | [3] 93 % of control
